Experimental data as given in ChEMBL document CHEMBL5257106, “Design, synthesis, and biological evaluation of novel HDAC inhibitors with a 3-(benzazol-2-yl)quinoxaline framework” (Bioorg Med Chem Lett, 2023).
pIC50: −log10 of the molar value. Active and inactive are the calls of the source. The rule behind the calls is not given here.

Legend:
HCT-116 [1] = experiment: Induction of cell cycle arrest in human HCT-116 assessed as increase in G2/M phase cells at 1 uM incubated for 48 hrs by flow cytometric analysis (reference value: 23.70%); format: functional
HCT-116 [2] = experiment: Antiproliferative activity against human HCT-116 cells assessed as inhibition of cell growth by MTT assay; format: functional, cell-based
HCT-116 [3] = experiment: Induction of apoptosis in human HCT-116 cells assessed as viable cells at 0.5 uM incubated for 24 hrs by Annexin V-FITC/PI staining based flow cytometry analysis (reference value: 93.2%); format: functional; settings: read-out: Activity
HCT-116 [4] = experiment: Induction of apoptosis in human HCT-116 cells assessed as upregulation of cleaved PARP expression at 0.5 to 1 uM incubated for 24 hrs by Western blot analysis; format: functional, cell-based; settings: dose 0.5-1 µM
A2780 = experiment: Antiproliferative activity against human A2780 cells assessed as inhibition of cell growth by MTT assay; format: functional, cell-based

- pIC50 (HCT-116 [2]): 6.04
- pIC50 (A2780): 5.75
SMILES: O=C(CCCCCCNc1nc2ccccc2nc1-c1nc2ccccc2o1)NO
- Activity (HCT-116 [1]): 39.64%
- viability at 0.5 µM (HCT-116 [3]): 64.5%
- Activity (HCT-116 [4]): Active
